The values below come from patent publication US20200239530A1, “COMPOUNDS AND METHODS OF MODULATING PROTEIN DEGRADATION” (Vividion Therapeutics, Inc., priority 2017, published 2020).

What all share (test): Cysteine liganding, probe competition
What all share (assay type): binding

In one assay the target is T1, UniProt Q6ZMU5 (Homo sapiens, UniProt Q6ZMU5).
T1 construct: 200 μL of lysate containing 5 mg/ml proteome was treated with 2 μL of 100× compound stock; endogenous in cells
T1 sequence (Q6ZMU5 1-477): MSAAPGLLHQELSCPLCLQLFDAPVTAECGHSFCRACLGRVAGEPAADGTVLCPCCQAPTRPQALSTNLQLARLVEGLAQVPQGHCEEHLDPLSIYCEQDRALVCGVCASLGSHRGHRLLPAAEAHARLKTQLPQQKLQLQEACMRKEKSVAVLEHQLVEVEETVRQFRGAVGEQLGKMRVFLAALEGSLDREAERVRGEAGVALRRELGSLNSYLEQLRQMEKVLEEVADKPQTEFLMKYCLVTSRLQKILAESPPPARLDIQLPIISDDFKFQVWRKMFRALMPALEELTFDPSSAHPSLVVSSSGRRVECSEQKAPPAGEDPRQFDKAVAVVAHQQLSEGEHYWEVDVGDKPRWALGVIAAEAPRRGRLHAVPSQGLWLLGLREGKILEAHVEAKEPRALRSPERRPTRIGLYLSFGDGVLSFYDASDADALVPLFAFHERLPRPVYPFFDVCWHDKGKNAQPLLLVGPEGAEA
An excerpt: (§1) The following 96-well sample prep protocol was used for sample preparation.

A further assay deals with T2, UniProt Q96BF6 (Homo sapiens, UniProt Q96BF6).
T2 construct: Cells were resuspended in cold PBS on ice and sonicated with a probe sonicator to achieve lysis; endogenous in cells
T2 sequence (Q96BF6 1-587): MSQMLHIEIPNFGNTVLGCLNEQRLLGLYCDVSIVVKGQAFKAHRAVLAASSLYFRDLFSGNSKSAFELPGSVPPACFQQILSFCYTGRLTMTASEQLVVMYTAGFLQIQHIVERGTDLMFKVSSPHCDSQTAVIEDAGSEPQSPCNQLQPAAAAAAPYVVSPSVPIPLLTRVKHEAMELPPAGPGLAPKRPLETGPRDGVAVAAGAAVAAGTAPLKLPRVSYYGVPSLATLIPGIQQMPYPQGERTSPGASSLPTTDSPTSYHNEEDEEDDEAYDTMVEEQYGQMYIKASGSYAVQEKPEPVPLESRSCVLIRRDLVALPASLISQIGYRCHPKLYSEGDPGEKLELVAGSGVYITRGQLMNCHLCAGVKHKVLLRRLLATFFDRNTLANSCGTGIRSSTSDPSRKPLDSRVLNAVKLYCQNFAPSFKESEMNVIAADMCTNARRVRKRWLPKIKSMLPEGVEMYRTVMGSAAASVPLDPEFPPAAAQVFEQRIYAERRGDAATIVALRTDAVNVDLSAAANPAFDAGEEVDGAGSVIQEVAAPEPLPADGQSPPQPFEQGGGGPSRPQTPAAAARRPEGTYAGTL
The settings on record: for inhibition at 100 µM / inhibition at 500 µM: read-out: percent inhibition.
Source text: as §1

The target of another assay is T3, UniProt Q96EX2 (Homo sapiens, UniProt Q96EX2).
T3 construct: 200 μL of lysate containing 5 mg/ml proteome was treated with 2 μL of 100× compound stock; endogenous in cells
T3 sequence (Q96EX2 1-444): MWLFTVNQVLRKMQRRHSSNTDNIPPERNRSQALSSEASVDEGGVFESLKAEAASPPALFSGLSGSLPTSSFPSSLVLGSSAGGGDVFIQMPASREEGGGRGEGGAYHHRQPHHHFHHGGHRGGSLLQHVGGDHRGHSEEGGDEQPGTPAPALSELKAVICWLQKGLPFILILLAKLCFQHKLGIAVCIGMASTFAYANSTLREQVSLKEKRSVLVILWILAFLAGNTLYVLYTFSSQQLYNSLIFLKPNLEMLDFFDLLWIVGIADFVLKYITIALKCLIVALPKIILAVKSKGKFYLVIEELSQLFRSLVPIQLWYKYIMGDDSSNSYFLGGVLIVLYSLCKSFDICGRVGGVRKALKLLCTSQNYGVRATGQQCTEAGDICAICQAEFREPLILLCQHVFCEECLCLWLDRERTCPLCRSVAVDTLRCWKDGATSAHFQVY
As to conditions: for inhibition at 100 µM / inhibition at 500 µM: read-out: percent_inhibition.
Source text: as §1

The next assay concerns the target T4, UniProt Q9BZR9 (Homo sapiens, UniProt Q9BZR9).
T4 construct: 200 μL of lysate containing 5 mg/ml proteome was treated with 2 μL of 100× compound stock; endogenous in cells
T4 sequence (Q9BZR9 1-551): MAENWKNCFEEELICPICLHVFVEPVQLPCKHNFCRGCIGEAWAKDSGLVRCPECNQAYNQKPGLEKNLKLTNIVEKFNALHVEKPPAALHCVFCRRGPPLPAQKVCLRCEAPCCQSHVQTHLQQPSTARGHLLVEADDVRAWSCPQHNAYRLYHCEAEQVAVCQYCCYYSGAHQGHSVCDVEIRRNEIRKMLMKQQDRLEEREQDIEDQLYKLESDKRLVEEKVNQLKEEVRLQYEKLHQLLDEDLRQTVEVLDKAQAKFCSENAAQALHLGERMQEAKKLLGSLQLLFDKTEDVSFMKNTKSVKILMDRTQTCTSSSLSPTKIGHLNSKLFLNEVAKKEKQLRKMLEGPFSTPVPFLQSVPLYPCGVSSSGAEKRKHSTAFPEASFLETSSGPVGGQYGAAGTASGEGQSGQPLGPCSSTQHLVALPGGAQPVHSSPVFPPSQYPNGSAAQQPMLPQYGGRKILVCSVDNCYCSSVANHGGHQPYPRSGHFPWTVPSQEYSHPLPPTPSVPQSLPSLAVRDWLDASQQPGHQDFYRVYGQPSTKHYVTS
Source text: as §1

The target in a further assay is T5, UniProt Q9H992 (Homo sapiens, UniProt Q9H992).
T5 construct: Cells were resuspended in cold PBS on ice and sonicated with a probe sonicator to achieve lysis; endogenous in cells
T5 sequence (Q9H992 whole entry, change not shown): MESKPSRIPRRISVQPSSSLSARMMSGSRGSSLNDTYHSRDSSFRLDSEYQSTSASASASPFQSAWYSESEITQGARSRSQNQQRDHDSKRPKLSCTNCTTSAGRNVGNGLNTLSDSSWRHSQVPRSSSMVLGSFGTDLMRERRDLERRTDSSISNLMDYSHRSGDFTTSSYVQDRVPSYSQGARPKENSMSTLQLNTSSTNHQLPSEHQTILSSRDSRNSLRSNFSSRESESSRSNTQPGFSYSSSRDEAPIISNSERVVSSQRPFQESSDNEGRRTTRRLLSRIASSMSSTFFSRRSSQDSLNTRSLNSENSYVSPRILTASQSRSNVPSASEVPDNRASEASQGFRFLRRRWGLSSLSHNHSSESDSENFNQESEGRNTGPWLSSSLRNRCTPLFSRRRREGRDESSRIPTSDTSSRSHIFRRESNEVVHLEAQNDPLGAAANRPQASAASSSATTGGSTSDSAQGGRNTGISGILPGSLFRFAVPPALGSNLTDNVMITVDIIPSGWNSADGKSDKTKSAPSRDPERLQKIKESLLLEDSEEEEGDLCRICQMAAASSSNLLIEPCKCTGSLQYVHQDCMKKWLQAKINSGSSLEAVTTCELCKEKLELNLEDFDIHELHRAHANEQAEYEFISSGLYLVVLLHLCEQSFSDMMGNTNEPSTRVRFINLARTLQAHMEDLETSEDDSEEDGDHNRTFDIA
Source text: as §1

A further assay concerns the target T6, UniProt Q9HCE7 (Homo sapiens, UniProt Q9HCE7).
T6 construct: 200 μL of lysate containing 5 mg/ml proteome was treated with 2 μL of 100× compound stock; endogenous in cells
Source text: as §1

[1] abbreviates: read-out: KB05_100 uM_percent_inhibition.

Structures are written as SMILES. Where two headings read alike, the source gives them in different places.

T6 sequence (Q9HCE7 whole entry, change not shown): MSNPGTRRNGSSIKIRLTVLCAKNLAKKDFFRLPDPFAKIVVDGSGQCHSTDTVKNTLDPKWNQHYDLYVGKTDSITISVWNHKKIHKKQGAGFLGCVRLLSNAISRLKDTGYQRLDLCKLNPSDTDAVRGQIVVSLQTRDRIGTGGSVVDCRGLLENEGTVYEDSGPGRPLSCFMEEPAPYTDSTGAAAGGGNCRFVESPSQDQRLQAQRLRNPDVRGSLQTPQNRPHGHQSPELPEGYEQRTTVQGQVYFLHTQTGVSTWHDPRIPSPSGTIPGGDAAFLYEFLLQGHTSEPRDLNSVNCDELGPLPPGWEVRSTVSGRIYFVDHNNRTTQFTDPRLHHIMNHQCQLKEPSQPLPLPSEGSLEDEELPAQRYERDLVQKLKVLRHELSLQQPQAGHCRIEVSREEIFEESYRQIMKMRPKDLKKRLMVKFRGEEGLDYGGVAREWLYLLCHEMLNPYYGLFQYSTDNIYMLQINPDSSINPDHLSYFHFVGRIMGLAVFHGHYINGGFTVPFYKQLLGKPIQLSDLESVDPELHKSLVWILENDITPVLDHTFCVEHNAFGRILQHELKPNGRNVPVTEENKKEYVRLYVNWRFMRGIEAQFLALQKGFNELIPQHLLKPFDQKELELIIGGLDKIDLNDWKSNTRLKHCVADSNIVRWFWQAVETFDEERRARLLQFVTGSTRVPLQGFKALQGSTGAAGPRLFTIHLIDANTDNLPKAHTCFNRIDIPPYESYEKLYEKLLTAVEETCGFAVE

As to `COc1ccc2c(c1)CCCN2C(=O)CCl` [KB02], the inhibition at 100 µM worked out at 36% on UniProt Q6ZMU5 (read-out: KB02_100 uM_percent_inhibition), 38% at UniProt Q96BF6 (100 uM) and 44% on UniProt Q96EX2. Further, the percent inhibition at UniProt Q96BF6 (100 uM) and at UniProt Q96BF6 (500 uM) was 32% throughout. Moreover, the figures for the inhibition at 500 µM on UniProt Q96BF6 (500 uM) and at UniProt Q96EX2 (500 uM) were 46% and 42%, respectively.
With `C=CC(=O)N(c1ccccc1)c1ccc(Br)cc1` [KB05], the “KB05_100 uM_percent_inhibition” value on UniProt Q6ZMU5 (100 uM) is on record as 8%; on UniProt Q9BZR9 (100 uM) it was 16%. Moreover, the inhibition at 100 µM on UniProt Q6ZMU5 (setting [1]) was 6%; on UniProt Q96BF6 (100 uM), 25%; on UniProt Q96EX2 it was 17%; at UniProt Q9BZR9 (setting [1]), 10%; on UniProt Q9H992 (read-out: percent inhibition) it was 21%; at UniProt Q9HCE7 (read-out: percent_inhibition) it was 52%. Besides, at UniProt Q96BF6 (500 uM), the percent inhibition is recorded as 56%. Moreover, the inhibition at 500 µM at UniProt Q96BF6 (500 uM) was 47%; on UniProt Q96EX2 (500 uM) it was 16%. The compound further registered a percent_inhibition on UniProt Q96EX2 (500 uM) of 29%.
`O=C(CCl)Nc1cc(C(F)(F)F)cc(C(F)(F)F)c1` [KBO3]: at UniProt Q9BZR9 (100 uM), the “KB03_100 uM_percent_inhibition” value came to 39%. The compound further showed a percent inhibition on UniProt Q9H992 (100 uM) of 82%. This compound had a percent_inhibition on UniProt Q9HCE7 (100 uM) of 71%.
